Experiment [1] deals with T1, human 5-HT1A receptor subtype (Homo sapiens, UniProt P08908).
T1 construct: expressed in transfected cells
T1 sequence (P08908 1-422): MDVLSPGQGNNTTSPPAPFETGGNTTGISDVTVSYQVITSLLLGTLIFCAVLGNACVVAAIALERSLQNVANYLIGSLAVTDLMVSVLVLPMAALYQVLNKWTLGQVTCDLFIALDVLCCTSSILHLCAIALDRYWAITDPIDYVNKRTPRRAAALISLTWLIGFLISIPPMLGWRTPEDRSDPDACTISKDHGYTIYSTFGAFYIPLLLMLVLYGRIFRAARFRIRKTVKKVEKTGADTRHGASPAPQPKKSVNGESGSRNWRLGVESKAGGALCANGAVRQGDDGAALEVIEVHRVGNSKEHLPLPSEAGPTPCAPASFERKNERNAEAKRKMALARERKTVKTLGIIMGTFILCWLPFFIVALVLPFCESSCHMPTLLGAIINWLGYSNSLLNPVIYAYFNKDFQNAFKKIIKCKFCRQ
The experiment is described as follows: 5-HT1A receptor binding assay with [3H]8-OH-DPAT on membranes of 5-HT1A.CHO cells. The following applies: [3H]8-OH-DPAT 1.5 nM, CHO cell membranes. On the procedure: (§1) The PCR cloning of the human 5-HT1A receptor subtype from a human genomic library has been described previously Chanda et al., Mol. Pharmacol., 43:516 (1993). A stable Chinese hamster ovary cell line expressing the human 5-HT1A receptor subtype (5-HT1A.CHO cells) was employed throughout this study. Cells were maintained in DMEM supplemented with 10% foetal calf serum, non-essential amino acids and penicillin/ streptomycin.
Cells were grown to 95-100% confluency as a monolayer before membranes were harvested for binding studies. Cells were gently scraped from the culture plates, transferred to centrifuge tubes, and washed twice by centrifugation (2000 rpm for 10 min., 4°C) in buffer (50 mM Tris; pH 7.5). The resulting pellets were aliquoted and placed at -80°C. On the day of assay, the cells were thawed on ice, and resuspended in buffer. Studies were conducted using [^3H]8-OH-DPAT as the radioligand. The binding assay was performed in 96 well microtiter plates in a final total volume of 250 µL of buffer. Competition experiments were performed by using 7 concentrations of unlabelled drug and a final ligand concentration of 1.5 nM . Non-specific binding was determined in the presence of 10 µM 5HT. Saturation analysis was conducted by using [^3H]8-OH-DPAT at concentrations ranging from 0.3-30 nM. Following a 30 minute incubation at room temperature, the reaction was terminated by the addition of ice cold buffer and rapid filtration using a M-96 Brandel Cell Harvester (Gaithersburg, MD) through a GF/B filter presoaked for 30 minutes in 0.5% polyethyleneimine.

The target of experiment [2] is T2, serotonin transporter (Rattus norvegicus, UniProt P31652).
T2 construct: frontal cortical membranes prepared from male Sprague-Dawley rats; from tissue; host or cells: rat frontal cortex membranes
T2 sequence (P31652 whole entry): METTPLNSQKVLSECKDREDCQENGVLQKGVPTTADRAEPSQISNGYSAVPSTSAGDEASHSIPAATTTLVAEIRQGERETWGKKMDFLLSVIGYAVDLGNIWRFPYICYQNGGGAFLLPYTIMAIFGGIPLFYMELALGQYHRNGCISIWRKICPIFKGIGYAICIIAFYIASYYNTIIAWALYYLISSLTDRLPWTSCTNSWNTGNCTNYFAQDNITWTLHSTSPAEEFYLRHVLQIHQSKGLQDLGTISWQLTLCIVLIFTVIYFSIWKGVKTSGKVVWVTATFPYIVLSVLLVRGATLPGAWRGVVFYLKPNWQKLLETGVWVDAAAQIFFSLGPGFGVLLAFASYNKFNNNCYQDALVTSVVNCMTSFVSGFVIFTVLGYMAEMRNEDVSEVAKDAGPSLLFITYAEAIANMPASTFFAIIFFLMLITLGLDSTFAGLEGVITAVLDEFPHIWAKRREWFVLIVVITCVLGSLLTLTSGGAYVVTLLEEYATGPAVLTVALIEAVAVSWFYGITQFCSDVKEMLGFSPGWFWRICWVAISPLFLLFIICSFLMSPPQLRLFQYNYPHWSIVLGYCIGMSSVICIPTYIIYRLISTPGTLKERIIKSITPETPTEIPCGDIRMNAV
Put plainly: serotonin transporter affinity, 3H-paroxetine binding to frontal cortical membranes. The note with it: 3H-paroxetine 0.1 nM, rat frontal cortical membranes; read-out: ST (Ki). Also noted: species or system male Sprague-Dawley rats. On the procedure:
Briefly, frontal cortical membranes prepared from male Sprague-Dawley rats were incubated with ^3H-paroxetine (0.1 nM) for 60 min at 25°C. All tubes also contained either vehicle, test compound (one to eight concentrations), or a saturating concentration of fluoxetine (10 µM) to define specific binding. All reactions are terminated by the addition of ice cold Tris buffer followed by rapid filtration using a Tom Tech filtration device to separate bound from free ^3H-paroxetine.

Experiment [3] deals with T3, 5-HT1A cloned receptor (Homo sapiens, UniProt P08908).
T3 construct: expressed in transfected cells
T3 sequence (P08908 1-422): T1 sequence (P08908 1-422)
Put plainly: [35S]-GTPγS binding assay on 5-HT1A cloned receptor membrane fragments. The note with it: maximum agonist response defined by excess 8-OH-DPAT. Format: biochemical. On the procedure:
The [^35S]-GTPγS binding assay was similar to that used by Lazareno and Birdsall, Br. J. Pharmacol. 109:1120 (1993). Briefly, 5-HT1A cloned receptor membrane fragments (as used for 5-HT1A receptor binding assays) were stored at -70 °C until needed. When needed, membranes were rapidly thawed, centrifuged at 40,000 x g for 10 minutes and resuspended at 4 °C for 10 minutes in assay buffer (25 mM HEPES, 3 mM MgCl2, 100 mM NaCI, 1 mM EDTA, 10 uM GDP, […] DTT, pH 8.0). These membranes were then incubated for 30 min at 30 °C with [^35S]GTPgS (1 nM) in the presence of vehicle, test compound (one to eight concentrations), or excess 8-OH-DPAT to define maximum agonist response. All reactions are terminated by the addition of ice cold Tris buffer followed by rapid filtration using a Tom Tech® filtration device to separate bound from free [^35S]GTPgS. Agonists produce an increase in the amount of [^35S]GTPgS bound whereas antagonists produce no increase in binding. Bound radioactivity was counted and analyzed as above.
In general terms: GTPγS resists hydrolysis and so accumulates on activated G proteins.

The target in experiment [4] is T1, human 5-HT1A receptor subtype. Put plainly: cAMP formation in forskolin-treated cells (cAMP SPA assay). In kind it is cell-based. The following applies: forskolin 1 uM, 10 min at 37°C. On the procedure:
as §1
The following assays were performed by incubating the cells with DMEM containing 25 mM HEPES, 5 mM theophylline and 10 µM pargyline for a period of 20 minutes at 37°C. Functional activity was assessed by treating the cells with forskolin (1 uM final concentration) followed immediately by test compound (6 concentrations) for an additional 10 min at 37°C. In separate experiments, 6 concentrations of antagonist were preincubated for 20 min prior to the addition of 10 nM 8-OH-DPAT and forskolin. The reaction was terminated by removal of the media and addition of 0.5 ml ice cold assay buffer. Plates were stored at -20°C prior to assessment of cAMP formation by a cAMP SPA assay (Amersham).
For orientation: Changes in cAMP serve as a functional read-out for many G protein-coupled receptors.

pKi: −log10 of the molar value.

For `COc1ccc(F)cc1OCCN[C@H]1CC[C@H](c2c[nH]c3cc(F)ccc32)CC1` [Example 2b, [(1,4-trans)-4-(6-Fluoro-1H-indol-3-yl)-cyclohexyl]-[2-(5-fluoro-2-methoxy-phenoxy)-ethyl]-amine], the pKi (commonly −log10 of the Ki, conventionally taken in molar units) in experiment [1] is 7.32; in experiment [2], 9.38. In addition, the Emax in experiment [3] and in experiment [4] was 0% in each case.
As for `Cc1nc2c(OCCN[C@H]3CC[C@H](c4c[nH]c5ccc(F)cc54)CC3)cc(Cl)cc2[nH]1` [Example 8b, [2-(6-Chloro-2-methyl-1H-benzoimidazol-4-yloxy)-ethyl]-[(1,4-trans)-4-(5-fluoro-1H-indol-3-yl)-cyclohexyl]-amine], the pKi in experiment [1] is 7.72; in experiment [2], 9.28. Besides, in experiment [4], the Emax (commonly the greatest response seen or fitted, relative to the assay's reference) is 0%.
As to `Fc1ccc2[nH]cc([C@H]3CC[C@H](NCCOc4cccc5c4OCCO5)CC3)c2c1` [Example 4b], the pKi is 7.72 in experiment [1] and 8.95 in experiment [2]. Besides, in experiment [4], the Emax is 61%.
In the case of `Fc1ccc2[nH]cc([C@H]3CC[C@H](NCCOc4cccc5[nH]ccc45)CC3)c2c1` [Example 3b], the results for the pKi in experiment [1] and in experiment [2] were 8.97 and 8.60, respectively. For the same compound, the Emax was found to be 62% in experiment [3] and 90% in experiment [4].
The like results for `Fc1cc2c(c(OCCN[C@H]3CC[C@H](c4c[nH]c5ccc(F)cc54)CC3)c1)OCCC2` [Example 5b, [2-(6-Fluoro-chroman-8-yloxy)-ethyl]-[(1,4-trans)-4-(5-fluoro-1H -indol-3-yl)-cyclohexyl]-amine] were, in that order, 7.71, 8.82, 22% and 0%.
The like results for `N#Cc1ccc2[nH]cc([C@H]3CC[C@H](NCCOc4cc(F)cc5c4OCCC5)CC3)c2c1` [Example 5f, 3-{(1,4-trans)-4-[2-(6-Fluoro-chroman-8-yloxy)-ethylamino]-cyclohexyl}-1H-indole-5-carbonitrile] were, in that order, 8.00, 8.59, 30% and 0%.

Source of the values: patent publication EP1068184B1, “N-ARYLOXYETHYLAMINE DERIVATIVES FOR THE TREATMENT OF DEPRESSION” (Wyeth, priority 1998, dated 1999).
